Results as given in patent US12116343B2, “Inhibitors of APOL1 and methods of using same” (Vertex Pharmaceuticals Incorporated, priority 2020, dated 2024).

target: T1, APOL1 G1 Protein (Homo sapiens, UniProt O14791, I384M/S342G); assay: Trypanosoma brucei brucei lysis assay using APOL1 recombinant protein (AlamarBlue viability); type: cell-based; conditions: Trypanosoma brucei brucei lysis, recombinant APOL1, AlamarBlue; read-out: Trypanosoma Assay (IC50)
T1 sequence (O14791 28-398 S342G/I384M): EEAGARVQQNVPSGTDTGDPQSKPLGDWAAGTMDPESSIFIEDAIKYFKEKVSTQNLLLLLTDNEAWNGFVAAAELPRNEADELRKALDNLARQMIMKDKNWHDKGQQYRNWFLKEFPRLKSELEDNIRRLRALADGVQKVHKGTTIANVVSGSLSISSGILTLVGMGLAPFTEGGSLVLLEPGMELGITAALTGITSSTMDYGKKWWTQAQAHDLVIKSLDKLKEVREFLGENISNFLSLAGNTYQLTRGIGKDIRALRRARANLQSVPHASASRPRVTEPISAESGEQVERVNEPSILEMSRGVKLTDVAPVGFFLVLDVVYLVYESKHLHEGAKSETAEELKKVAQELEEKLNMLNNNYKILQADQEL
Outline: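 Bloodstream-form T. b. brucei Lister 427 VSG 221, 120,000 parasites/well in phenol red-free, FBS-free medium, lysed by recombinant APOL1 G1 with compound (10-point dose response, 0.1% DMSO final). Viability read by AlamarBlue fluorescence against a parasite standard curve.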

Row | SMILES | IC50 [nM]
1 | O=C(NC[C@@H](O)C(F)(F)F)[C@H]1C[C@H](c2c(-c3ccc(F)cc3)[nH]c3c(F)cc(F)cc32)C1 [Compound 177] | 250 to 1000
2 | COC1CC1NC(=O)[C@H]1C[C@H](c2c(-c3ccc(F)cc3)[nH]c3c(F)cc(F)cc32)C1 (stereo partly drawn) [Compound 18] | > 1000
3 | O=C(N[C@H]1C[C@H](O)C1)[C@H]1C[C@H](c2c(-c3ccc(F)cc3)[nH]c3c(F)cc(F)cc32)C1 [Compound 20] | 250 to 1000
4 | CC(C)C(CO)NC(=O)[C@H]1C[C@H](c2c(-c3ccc(F)cc3)[nH]c3c(F)cc(F)cc32)C1 (stereo partly drawn) [Compound 29] | 250 to 1000
5 | O=C([C@H]1C[C@H](c2c(-c3ccc(F)cc3)[nH]c3c(F)cc(F)cc32)C1)N1CCOC[C@@H]1CO [Compound 219] | < 250
6 | O=C1NCCCC1NC(=O)[C@H]1C[C@H](c2c(-c3ccc(F)cc3)[nH]c3c(F)cc(F)cc32)C1 (stereo partly drawn) [Compound 23] | 250 to 1000
7 | CC(C)(O)C(O)CNC(=O)[C@H]1C[C@H](c2c(-c3ccc(F)cc3)[nH]c3c(F)cc(F)cc32)C1 (stereo partly drawn) [Compound 215] | > 1000
8 | CC(O)(CO)CNC(=O)[C@H]1C[C@H](c2c(-c3ccc(F)cc3)[nH]c3c(F)cc(F)cc32)C1 (mixture of isomers) [Compound 216] | > 1000
9 | O=C(NC[C@H](O)CO)[C@H]1C[C@H](c2c(-c3ccc(F)cc3)[nH]c3c(F)cc(F)cc32)C1 [Compound 225] | 250 to 1000
10 | O=C1CN(C(=O)[C@H]2C[C@H](c3c(-c4ccc(F)cc4)[nH]c4c(F)cc(F)cc43)C2)CCN1 [Compound 228] | > 1000
11 | NC(=O)C1CC(c2c(-c3ccc(F)cc3)[nH]c3c(F)cc(F)cc23)C1 (stereo not drawn) [Compound 278, 3-[5,7-difluoro-2-(4-fluorophenyl)-1H-indol-3-yl]cyclobutanecarboxamide] | 250 to 1000
12 | O=C(NCCn1cccc1)[C@H]1C[C@H](c2c(-c3ccc(F)cc3)[nH]c3c(F)cc(F)cc32)C1 [Compound 34] | 250 to 1000
13 | CC(C)CC(NC(=O)[C@H]1C[C@H](c2c(-c3ccc(F)cc3)[nH]c3c(F)cc(F)cc32)C1)C(N)=O (stereo partly drawn) [Compound 30] | > 1000
14 | O=C(NCC1(O)CC1)[C@H]1C[C@H](c2c(-c3ccc(F)cc3)[nH]c3c(F)cc(F)cc32)C1 [Compound 183] | 250 to 1000
15 | C[C@@H](O)CNC(=O)[C@H]1C[C@H](c2c(-c3ccc(F)cc3)[nH]c3c(F)cc(F)cc32)C1 [Compound 175] | 250 to 1000
16 | Cc1cnc(NC(=O)[C@H]2C[C@H](c3c(-c4ccc(F)cc4)[nH]c4c(F)cc(F)cc43)C2)o1 [Compound 24] | > 1000
17 | O=C(NC1CCOC1)[C@H]1C[C@H](c2c(-c3ccc(F)cc3)[nH]c3c(F)cc(F)cc32)C1 (stereo partly drawn) [Compound 15] | 250 to 1000
18 | O=C1OCC[C@@H]1NC(=O)[C@H]1C[C@H](c2c(-c3ccc(F)cc3)[nH]c3c(F)cc(F)cc32)C1 [Compound 188] | 250 to 1000
19 | O=C([C@H]1C[C@H](c2c(-c3ccc(F)cc3)[nH]c3c(F)cc(F)cc32)C1)N1CC[C@@H]1CO [Compound 195] | < 250
20 | O=C(NCCn1cncn1)[C@H]1C[C@H](c2c(-c3ccc(F)cc3)[nH]c3c(F)cc(F)cc32)C1 [Compound 36] | < 250
21 | CC(CO)(CO)NC(=O)[C@H]1C[C@H](c2c(-c3ccc(F)cc3)[nH]c3c(F)cc(F)cc32)C1 [Compound 186] | < 250
22 | Cc1ccn(CCNC(=O)[C@H]2C[C@H](c3c(-c4ccc(F)cc4)[nH]c4c(F)cc(F)cc43)C2)n1 [Compound 35] | 250 to 1000
23 | Cc1noc(CNC(=O)[C@H]2C[C@H](c3c(-c4ccc(F)cc4)[nH]c4c(F)cc(F)cc43)C2)n1 [Compound 173] | < 250
24 | O=C(NCC(O)CO)[C@H]1C[C@H](c2c(-c3ccc(F)cc3)[nH]c3c(F)cc(F)cc32)C1 (stereo partly drawn) [Compound 14] | 250 to 1000
25 | O=C([C@H]1C[C@H](c2c(-c3ccc(F)cc3)[nH]c3c(F)cc(F)cc32)C1)N1CCC[C@@H]1CO [Compound 192] | < 250
26 | CS(=O)(=O)NC(=O)[C@H]1C[C@H](c2c(-c3ccc(F)cc3)[nH]c3c(F)cc(F)cc32)C1 [Compound 213] | > 1000
27 | O=C(N[C@H]1CNC[C@@H]1O)[C@H]1C[C@H](c2c(-c3ccc(F)cc3)[nH]c3c(F)cc(F)cc32)C1 [Compound 212] | 250 to 1000

Row | SMILES | IC50 [nM]
28 | NC(=O)C(CO)NC(=O)[C@H]1C[C@H](c2c(-c3ccc(F)cc3)[nH]c3c(F)cc(F)cc32)C1 (stereo partly drawn) [Compound 32] | < 250
29 | C[C@H](O)[C@@H](CO)NC(=O)[C@H]1C[C@H](c2c(-c3ccc(F)cc3)[nH]c3c(F)cc(F)cc32)C1 [Compound 16] | < 250
30 | Cc1cc(NC(=O)[C@H]2C[C@H](c3c(-c4ccc(F)cc4)[nH]c4c(F)cc(F)cc43)C2)no1 [Compound 17] | 250 to 1000
31 | O=C1N[C@H](CO)C[C@@H]1NC(=O)[C@H]1C[C@H](c2c(-c3ccc(F)cc3)[nH]c3c(F)cc(F)cc32)C1 [Compound 209] | > 1000
32 | O=C(NCC1(O)COC1)[C@H]1C[C@H](c2c(-c3ccc(F)cc3)[nH]c3c(F)cc(F)cc32)C1 [Compound 185] | 250 to 1000
33 | CC(CO)N(C)C(=O)[C@H]1C[C@H](c2c(-c3ccc(F)cc3)[nH]c3c(F)cc(F)cc32)C1 (mixture of isomers) [Compound 193] | 250 to 1000
34 | CC(CO)NC(=O)[C@H]1C[C@H](c2c(-c3ccc(F)cc3)[nH]c3c(F)cc(F)cc32)C1 (mixture of isomers) [Compound 13] | < 250
35 | O=C([C@H]1C[C@H](c2c(-c3ccc(F)cc3)[nH]c3c(F)cc(F)cc32)C1)N1CC(CO)C1 [Compound 223] | < 250
36 | O=C(N[C@@H]1CCC[C@@H]1O)[C@H]1C[C@H](c2c(-c3ccc(F)cc3)[nH]c3c(F)cc(F)cc32)C1 [Compound 179] | 250 to 1000
37 | CS(=O)(=O)CCNC(=O)[C@H]1C[C@H](c2c(-c3ccc(F)cc3)[nH]c3c(F)cc(F)cc32)C1 [Compound 40] | > 1000
38 | O=C(N[C@@H]1CCC[C@H]1O)[C@H]1C[C@H](c2c(-c3ccc(F)cc3)[nH]c3c(F)cc(F)cc32)C1 [Compound 182] | > 1000
39 | NC(=O)[C@@H](CO)NC(=O)[C@H]1C[C@H](c2c(-c3ccc(F)cc3)[nH]c3c(F)cc(F)cc32)C1 [Compound 221] | < 250
40 | O=C(NCCn1cnnc1)[C@H]1C[C@H](c2c(-c3ccc(F)cc3)[nH]c3c(F)cc(F)cc32)C1 [Compound 39] | > 1000
41 | CC1(NC(=O)[C@H]2C[C@H](c3c(-c4ccc(F)cc4)[nH]c4c(F)cc(F)cc43)C2)CCNC1=O (mixture of isomers) [Compound 197] | < 250
42 | Cc1nnc(CNC(=O)[C@H]2C[C@H](c3c(-c4ccc(F)cc4)[nH]c4c(F)cc(F)cc43)C2)o1 [Compound 172] | < 250
43 | CC1CC(NC(=O)[C@H]2C[C@H](c3c(-c4ccc(F)cc4)[nH]c4c(F)cc(F)cc43)C2)C(=O)O1 (stereo partly drawn) [Compound 207] | > 1000
44 | O=C([C@H]1C[C@H](c2c(-c3ccc(F)cc3)[nH]c3c(F)cc(F)cc32)C1)N1CCC[C@H]1CO [Compound 210] | 250 to 1000
45 | CC[C@H](CO)NC(=O)[C@H]1C[C@H](c2c(-c3ccc(F)cc3)[nH]c3c(F)cc(F)cc32)C1 [Compound 203] | 250 to 1000
46 | O=C(N[C@@H]1CCOC1)[C@H]1C[C@H](c2c(-c3ccc(F)cc3)[nH]c3c(F)cc(F)cc32)C1 [Compound 19] | 250 to 1000
47 | Cn1cncc1CNC(=O)[C@H]1C[C@H](c2c(-c3ccc(F)cc3)[nH]c3c(F)cc(F)cc32)C1 [Compound 174] | 250 to 1000
48 | CN(C(=O)[C@H]1C[C@H](c2c(-c3ccc(F)cc3)[nH]c3c(F)cc(F)cc32)C1)C1COCC1O (stereo partly drawn) [Compound 205] | > 1000
49 | CC[C@@H](CO)NC(=O)[C@H]1C[C@H](c2c(-c3ccc(F)cc3)[nH]c3c(F)cc(F)cc32)C1 [Compound 204] | < 250
50 | Cc1cc(CNC(=O)[C@H]2C[C@H](c3c(-c4ccc(F)cc4)[nH]c4c(F)cc(F)cc43)C2)on1 [Compound 37] | 250 to 1000
51 | O=C(N[C@H]1CC[C@H]1O)[C@H]1C[C@H](c2c(-c3ccc(F)cc3)[nH]c3c(F)cc(F)cc32)C1 [Compound 181] | 250 to 1000
52 | O=C(NC(CO)C1CC1)[C@H]1C[C@H](c2c(-c3ccc(F)cc3)[nH]c3c(F)cc(F)cc32)C1 (stereo partly drawn) [Compound 199] | 250 to 1000
53 | O=C(NC[C@@H](O)CO)[C@H]1C[C@H](c2c(-c3ccc(F)cc3)[nH]c3c(F)cc(F)cc32)C1 [Compound 224] | > 1000
54 | N#CC(CO)NC(=O)[C@H]1C[C@H](c2c(-c3ccc(F)cc3)[nH]c3c(F)cc(F)cc32)C1 (stereo partly drawn) [Compound 201] | < 250
